This note sets out measurements from patent US9955691B2, “Macrocyclic picolinamides as fungicides” (DOW AGROSCIENCES LLC, priority 2014, dated 2018).

For data set [1], the system named is Mycosphaerella graminicola; Anamorph: Septoria tritici. Briefly: Fungicidal activity: Leaf Blotch of Wheat (SEPTTR). The data set is classed as in vivo. As to conditions: Zymoseptoria tritici, wheat leaf blotch; for pest or weed control at 100 µg/mL: High Volume (100 ppm); for pest or weed control at 121.5 g/ha: Low Volume (121.5 g/H). The procedure, abridged:
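Compounds were dissolved in acetone, diluted with nine volumes of water containing 110 ppm Triton X-100, and sprayed to run-off on first-leaf Yuma wheat seedlings inoculated with Septoria tritici spores before or after treatment. Plants were held in a dew chamber, then a 20° C. greenhouse. Percent control was derived from disease severity relative to untreated plants.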

The subject of data set [2] is Puccinia triticina. The data set is described as follows: Fungicidal activity: Wheat Brown Rust (PUCCRT). It is filed as in vivo. The note with it: for pest or weed control at 100 µg/mL: High Volume (100 ppm); for pest or weed control at 121.5 g/ha: Low Volume (121.5 g/H). The procedure, abridged:
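Wheat seedlings (Yuma, first leaf) sprayed to run-off with compound in acetone/water with Triton X-100, inoculated with Puccinia triticina before or after treatment. Held overnight in dark dew at 22° C, then greenhouse at 24° C; percent disease control from severity versus untreated plants.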

Setting [3] is: 24 h, 1 Day Protectant, read-out: SEPTTR 1 DP disease control.
The mark [4] stands for this setting: 72 h, 3 Day Curative, read-out: SEPTTR 3 DC disease control.
[5] abbreviates: 24 h, 1 Day Protectant, read-out: PUCCRT 1 DP disease control.
[6] abbreviates: 72 h, 3 Day Curative, read-out: PUCCRT 3 DC disease control.

Each structure is given as a SMILES string. Where two headings read alike, the source gives them in different places.

`C[C@@H]1OC(=O)[C@@H](N)COC[C@H](Cc2ccc(Cl)cc2)[C@H]1Cc1ccc(OC(F)(F)F)cc1.Cl` came in with a melting point of 144 to 148 °C. Compound `C[C@@H]1OC(=O)[C@@H](NC(=O)OC(C)(C)C)COC[C@H](Cc2ccc(Cl)cc2)[C@H]1C1CCCC1` [compound 237] showed a melting point of 113 to 115 °C. Consider `COc1cccc(C[C@H]2COC[C@H](N)C(=O)O[C@@H](C)[C@@H]2Cc2cccc(OC)c2)c1.Cl`, for which the melting point was 181 to 186 °C (dec.).

For the compound `C[C@@H]1OC(=O)[C@@H](N)COC[C@H](CC2CC2)[C@H]1Cc1ccccc1.Cl`, the melting point is 189 to 195 °C. On the same count and under the same terms, then `C[C@@H]1OC(=O)[C@@H](N)COC[C@H](Cc2ccccc2)[C@H]1COc1ccccc1.Cl`, with 209 to 214 °C. Same read-out and setting: the figure for `C=C(C)COC[C@@H]1[C@@H](Cc2ccccc2)COC[C@H](NC(=O)OC(C)(C)C)C(=O)O[C@H]1C` [compound 208] is 84 to 88 °C; for `C[C@@H]1OC(=O)[C@@H](N)COC[C@H](Cc2ccccc2)[C@H]1Cc1ccccc1.Cl` it is 196 to 202 °C. With `C[C@H]1OC(=O)[C@@H](N)COC[C@H](Cc2ccccc2)[C@H]1Cc1ccccc1.Cl`, the melting point lay within 206 to 211 °C.

`C[C@@H]1OC(=O)[C@@H](N)COC[C@H](Cc2ccc(C(F)(F)F)cc2)[C@H]1Cc1ccc(OC(F)(F)F)cc1.Cl`: the melting point was 172 to 175 °C. On the same count and under the same terms, the figure for `C[C@@H]1OC(=O)[C@@H](NC(=O)OC(C)(C)C)COC[C@H](Cc2ccc(C(F)(F)F)cc2)[C@H]1Cc1ccc(OC(F)(F)F)cc1` [compound 225] is 50 to 56 °C; for `C[C@@H]1OC(=O)[C@@H](N)COC[C@H](CCCc2ccccc2)[C@H]1CCc1ccccc1.Cl` it is 147 to 151 °C. Same read-out and setting: the figure for `C[C@@H]1OC(=O)[C@@H](NC(=O)OC(C)(C)C)COC[C@H](CC2CCCC2)[C@H]1CC1CCCC1` [compound 215] is 95 to 99 °C; for `C[C@@H]1OC(=O)[C@@H](N)COC[C@H](Cc2ccc(Cl)cc2)[C@H]1C1CCCC1.Cl` it is 200 to 203 °C.

Regarding `COc1ccnc(C(=O)N[C@H]2COC[C@H](Cc3ccccc3)[C@@H](c3ccccc3)[C@H](C)OC2=O)c1OCOC(=O)C(C)C` [compound 52], the melting point is 69 to 73 °C. On the same count and under the same terms, then `C=C[C@@H]1[C@@H](Cc2ccccc2)COC[C@H](NC(=O)OC(C)(C)C)C(=O)O[C@H]1C` [compound 205], with 134 to 138 °C. The same measure, in the same setting: then `CCC[C@H]1COC[C@H](N)C(=O)O[C@@H](C)[C@@H]1Cc1ccc(F)cc1.Cl`, with 184 to 187 °C; and `C[C@@H]1OC(=O)[C@@H](NC(=O)OC(C)(C)C)COC[C@H](CC2CCCCC2)[C@H]1CC1CCCCC1` [compound 206], with 44 to 50 °C; and `CC(C)CC[C@H]1COC[C@H](N)C(=O)O[C@@H](C)[C@@H]1C1CCCC1.Cl`, with 149 to 153 °C. `C[C@@H]1OC(=O)[C@@H](NC(=O)OC(C)(C)C)COC[C@H](Cc2ccccc2)[C@H]1c1ccccc1` [compound 224] gave a melting point of 66 to 71 °C. For the compound `C[C@@H]1OC(=O)[C@@H](N)COC[C@H](CCc2ccccc2)[C@H]1CCc1ccccc1.Cl`, the melting point is 184 °C (dec.). The same measure, in the same setting: then `C[C@@H]1OC(=O)[C@@H](N)COC[C@H](CC2CCCCC2)[C@H]1CC1CCCCC1.Cl`, with 191 to 197 °C (dec.); and `CC(C)C[C@@H]1[C@@H](Cc2ccc(C(F)(F)F)cc2)COC[C@H](NC(=O)OC(C)(C)C)C(=O)O[C@H]1C` [compound 229], with 115 to 118 °C. Same read-out and setting: the figure for `C[C@@H]1OC(=O)[C@@H](NC(=O)OC(C)(C)C)COC[C@H](c2ccccc2)[C@H]1c1ccccc1` [compound 204] is 63 to 71 °C; for `C=C[C@@H]1[C@@H](Cc2ccccc2)COC[C@H](N)C(=O)O[C@H]1C.Cl` it is 208 °C (dec.); for `C[C@@H]1OC(=O)[C@@H](NC(=O)OC(C)(C)C)COC[C@H](Cc2ccccc2)[C@H]1Cc1ccccc1` [Cmpd. 203, tert-butyl ((3S,7R,8R,9S)-7,8-dibenzyl-9-methyl-2-oxo-1,5-dioxonan-3-yl)carbamate] it is 41 to 45 °C.

`CCCC[C@@H]1[C@@H](Cc2ccc(C(F)(F)F)cc2)COC[C@H](NC(=O)c2nccc(OC)c2O)C(=O)O[C@H]1C` [compound 123]: the pest or weed control at 100 µg/mL in data set [1] (setting [3]), in data set [1] (setting [4]), in data set [2] (setting [5]) and in data set [2] (setting [6]) was under 70% each time.

With `COc1ccnc(C(=O)N[C@H]2COC[C@H](Cc3ccccc3)[C@@H](CCC(C)C)[C@H](C)OC2=O)c1OCOC(=O)C(C)C` [compound 82], the pest or weed control at 121.5 g/ha in data set [1] (setting [3]), in data set [1] (setting [4]), in data set [2] (setting [5]) and in data set [2] (setting [6]) was under 70% each time.

For `COc1ccnc(C(=O)N[C@H]2COC[C@H](Cc3ccc(C(F)(F)F)cc3)[C@@H](Cc3ccccc3)[C@H](C)OC2=O)c1O` [compound 136], the pest or weed control at 100 µg/mL was over 70% in data set [1] (setting [3]), under 70% in data set [1] (setting [4]), over 70% in data set [2] (setting [5]) and over 70% in data set [2] (setting [6]).

As for `COc1ccnc(C(=O)N[C@H]2COC[C@H](Cc3ccccc3)[C@@H](CC(C)C)[C@H](C)OC2=O)c1OCOC(=O)C(C)C` [compound 20], the pest or weed control at 121.5 g/ha in data set [1] (setting [3]), in data set [1] (setting [4]), in data set [2] (setting [5]) and in data set [2] (setting [6]) was over 70% throughout. As to `COc1ccnc(C(=O)N[C@H]2COC[C@H](Cc3ccc(Cl)cc3)[C@@H](Cc3ccccc3)[C@H](C)OC2=O)c1OCOC(C)=O` [compound 47], the pest or weed control at 121.5 g/ha in data set [1] (setting [3]), in data set [1] (setting [4]), in data set [2] (setting [5]) and in data set [2] (setting [6]) was over 70% in each case. In the case of `CCOCC(=O)OCOc1c(OC)ccnc1C(=O)N[C@H]1COC[C@H](CCC(C)C)[C@@H](Cc2ccccc2)[C@H](C)OC1=O` [compound 45], the pest or weed control at 121.5 g/ha in data set [1] (setting [3]), in data set [1] (setting [4]), in data set [2] (setting [5]) and in data set [2] (setting [6]) was over 70% each time. Regarding `COc1ccnc(C(=O)N[C@H]2COC[C@H](Cc3ccccc3)[C@@H](CCC(C)C)[C@H](C)OC2=O)c1O` [compound 148], the pest or weed control at 100 µg/mL in data set [1] (setting [3]) was over 70%; in data set [1] (setting [4]), over 70%; in data set [2] (setting [5]), under 70%; in data set [2] (setting [6]), under 70%. For `COc1ccnc(C(=O)N[C@H]2COC[C@H](Cc3ccc(C(F)(F)F)cc3)[C@@H](Cc3ccccc3)[C@H](C)OC2=O)c1OCOC(C)=O` [compound 56], the pest or weed control at 121.5 g/ha in data set [1] (setting [3]) was over 70%; in data set [1] (setting [4]), under 70%; in data set [2] (setting [5]) it was over 70%; in data set [2] (setting [6]), under 70%.

Take `CCC[C@H]1COC[C@H](NC(=O)c2nccc(OC)c2OCOC(C)=O)C(=O)O[C@@H](C)[C@@H]1c1ccccc1` [compound 97]: the pest or weed control at 121.5 g/ha in data set [1] (setting [3]), in data set [1] (setting [4]), in data set [2] (setting [5]) and in data set [2] (setting [6]) was over 70% each time.
